Experiments:
[1] = test system: Staphylococcus aureus (ATCC 29213); test: Antibiotic susceptibility by glucose consumption in culture medium, blood culture bottle inoculum (Example 1); type: cell-based; conditions: for Glucose concentration t=60: 60 minutes; for Glucose concentration t=120: 120 minutes; for Glucose concentration t=180: 180 minutes; for Glucose concentration t=240: 240 minutes; for dC/dT: rate of change in glucose concentration;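 for dC/dT: rate calculated between the 60 and 180 min readings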
Experimental: (§1) Strains of Escherichia coli (ATCC 25922), Enterococcus faecalis (ATCC 29212) and Staphylococcus aureus (ATCC 29213) were inoculated in blood culture bottles (SVA, Uppsala, Sweden) and cultivated according to the manufacturer's instructions until positive.
(§2) Medium from each blood culture bottle was diluted 1:100 with cation adjusted Mueller-Hinton broth (SVA, Uppsala, Sweden) supplemented with glucose to a concentration of 1.0 mg/mL.
(§3) Table 1: Concentrations of antibiotic agents are given in µg/mL.
(§4) Glucose concentrations were measured at 0, 60, 120, 180, and 240 minutes using a WaveSense Jazz glucometer (AgaMatrix, Inc., Salem, NH, USA) with accompanying test strips.
(§5) Susceptibility scores corresponding to MIC values were calculated as described above. A 80% threshold was applied, i.e. the lowest concentration of antibiotic that entailed a rate of change in glucose concentration that was equal to or less than 80% of the reference was selected as the Minimal Inhibitory Concentration. The rate of change was calculated between the measurements at 60 and 180 minutes.

[2] = test system: Enterococcus faecalis (ATCC 29212); test: as above; type: cell-based; conditions: for Glucose concentration t=0: 0 minutes; for Glucose concentration t=60: 60 minutes; for Glucose concentration t=120: 120 minutes; for Glucose concentration t=180: 180 minutes; for dC/dT: rate of change in glucose concentration; for Glucose concentration t=240: 240 minutes;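 for dC/dT: rate calculated between the 60 and 180 min readings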
Experimental: as §1, §2, §3, §4, §5

In the case of CN[C@H](CC(C)C)C(=O)N[C@H]1C(=O)N[C@@H](CC(N)=O)C(=O)N[C@H]2C(=O)N[C@H]3C(=O)N[C@H](C(=O)N[C@H](C(=O)O)c4cc(O)cc(O)c4-c4cc3ccc4O)[C@H](O)c3ccc(c(Cl)c3)Oc3cc2cc(c3O[C@@H]2O[C@H](CO)[C@@H](O)[C@H](O)[C@H]2O[C@H]2C[C@](C)(N)[C@H](O)[C@H](C)O2)Oc2ccc(cc2Cl)[C@H]1O [Vancomycin], the “F=the rate of change in glucose concentration in relation to the reference” value (“F=the rate of change” below) ([1]; [Ab] 0,5 µg/mL) is reported as 84%, the “Glucose concentration t=60” value ([1]; [Ab] 0,5 µg/mL) is reported as 156 and the “Glucose concentration t=120” value ([1]; [Ab] 0,5 µg/mL) is reported as 142. The “Glucose concentration t=180” value ([1]; [Ab] 0,5 µg/mL) was 100, the “Glucose concentration t=240” value ([1]; [Ab] 0,5 µg/mL) was 51 and the dC/dT ([1]; [Ab] 0,5 µg/mL) was 28. The “F=the rate of change” value ([1]; [Ab] 0,25 µg/mL) was 75%, the “Glucose concentration t=60” value ([1]; [Ab] 0,25 µg/mL) was 142 and the “Glucose concentration t=120” value ([1]; [Ab] 0,25 µg/mL) was 133. The “Glucose concentration t=180” value ([1]; [Ab] 0,25 µg/mL) was 92, the “Glucose concentration t=240” value ([1]; [Ab] 0,25 µg/mL) was 42 and the dC/dT ([1]; [Ab] 0,25 µg/mL) was 25. For the same molecule, the “F=the rate of change” value ([1]; [Ab] 1 µg/mL) was 96%, the “Glucose concentration t=60” value ([1]; [Ab] 1 µg/mL) was 161 and the “Glucose concentration t=120” value ([1]; [Ab] 1 µg/mL) was 140. For the same molecule, the “Glucose concentration t=180” value ([1]; [Ab] 1 µg/mL) was 97, the “Glucose concentration t=240” value ([1]; [Ab] 1 µg/mL) was 51 and the dC/dT ([1]; [Ab] 1 µg/mL) was 32. For the same molecule, the “F=the rate of change” value ([1]; [Ab] 2 µg/mL) was 88%, the “Glucose concentration t=60” value ([1]; [Ab] 2 µg/mL) was 160 and the “Glucose concentration t=120” value ([1]; [Ab] 2 µg/mL) was 143. For the same molecule, the “Glucose concentration t=180” value ([1]; [Ab] 2 µg/mL) was 101, the “Glucose concentration t=240” value ([1]; [Ab] 2 µg/mL) was 53 and the dC/dT ([1]; [Ab] 2 µg/mL) was 30. For the same molecule, the “F=the rate of change” value ([1]; [Ab] 4 µg/mL) was 39%, the “Glucose concentration t=60” value ([1]; [Ab] 4 µg/mL) was 157 and the “Glucose concentration t=120” value ([1]; [Ab] 4 µg/mL) was 147. The “Glucose concentration t=180” value ([1]; [Ab] 4 µg/mL) was 131, the “Glucose concentration t=240” value ([1]; [Ab] 4 µg/mL) was 107 and the dC/dT ([1]; [Ab] 4 µg/mL) was 13. The “F=the rate of change” value ([1]; [Ab] 8 µg/mL) was 6%, the “Glucose concentration t=60” value ([1]; [Ab] 8 µg/mL) was 150 and the “Glucose concentration t=120” value ([1]; [Ab] 8 µg/mL) was 150. For the same molecule, the “Glucose concentration t=180” value ([1]; [Ab] 8 µg/mL) was 146, the “Glucose concentration t=240” value ([1]; [Ab] 8 µg/mL) was 149 and the dC/dT ([1]; [Ab] 8 µg/mL) was 2. For the same molecule, the “F=the rate of change” value ([1]; [Ab] 16 µg/mL) was 7%, the “Glucose concentration t=60” value ([1]; [Ab] 16 µg/mL) was 157 and the “Glucose concentration t=120” value ([1]; [Ab] 16 µg/mL) was 153. The “Glucose concentration t=180” value ([1]; [Ab] 16 µg/mL) was 152, the “Glucose concentration t=240” value ([1]; [Ab] 16 µg/mL) was 149 and the dC/dT ([1]; [Ab] 16 µg/mL) was 3. The “F=the rate of change” value ([1]; [Ab] 32 µg/mL) was 13%, the “Glucose concentration t=60” value ([1]; [Ab] 32 µg/mL) was 157 and the “Glucose concentration t=120” value ([1]; [Ab] 32 µg/mL) was 140. The “Glucose concentration t=180” value ([1]; [Ab] 32 µg/mL) was 148, the “Glucose concentration t=240” value ([1]; [Ab] 32 µg/mL) was 146 and the dC/dT ([1]; [Ab] 32 µg/mL) was 5. The “F=the rate of change” value ([2]; [Ab] 0,5 µg/mL) was 82%, the “Glucose concentration t=0” value ([2]; [Ab] 0,5 µg/mL) was 154 and the “Glucose concentration t=60” value ([2]; [Ab] 0,5 µg/mL) was 155. The “Glucose concentration t=120” value ([2]; [Ab] 0,5 µg/mL) was 148, the “Glucose concentration t=180” value ([2]; [Ab] 0,5 µg/mL) was 96 and the dC/dT ([2]; [Ab] 0,5 µg/mL) was 30. For the same molecule, the “F=the rate of change” value ([2]; [Ab] 0,25 µg/mL) was 82%, the “Glucose concentration t=0” value ([2]; [Ab] 0,25 µg/mL) was 143 and the “Glucose concentration t=60” value ([2]; [Ab] 0,25 µg/mL) was 155. For the same molecule, the “Glucose concentration t=120” value ([2]; [Ab] 0,25 µg/mL) was 146, the “Glucose concentration t=180” value ([2]; [Ab] 0,25 µg/mL) was 96 and the dC/dT ([2]; [Ab] 0,25 µg/mL) was 30. For the same molecule, the “F=the rate of change” value ([2]; [Ab] 1 µg/mL) was 75%, the “Glucose concentration t=0” value ([2]; [Ab] 1 µg/mL) was 151 and the “Glucose concentration t=60” value ([2]; [Ab] 1 µg/mL) was 164. The “Glucose concentration t=120” value ([2]; [Ab] 1 µg/mL) was 153, the “Glucose concentration t=180” value ([2]; [Ab] 1 µg/mL) was 110 and the dC/dT ([2]; [Ab] 1 µg/mL) was 27. The “F=the rate of change” value ([2]; [Ab] 2 µg/mL) was 29%, the “Glucose concentration t=0” value ([2]; [Ab] 2 µg/mL) was 147 and the “Glucose concentration t=60” value ([2]; [Ab] 2 µg/mL) was 160. The “Glucose concentration t=120” value ([2]; [Ab] 2 µg/mL) was 152, the “Glucose concentration t=180” value ([2]; [Ab] 2 µg/mL) was 139 and the “Glucose concentration t=240” value ([2]; [Ab] 2 µg/mL) was 94. The dC/dT ([2]; [Ab] 2 µg/mL) was 11, the “F=the rate of change” value ([2]; [Ab] 4 µg/mL) was 19% and the “Glucose concentration t=0” value ([2]; [Ab] 4 µg/mL) was 147. For the same molecule, the “Glucose concentration t=60” value ([2]; [Ab] 4 µg/mL) was 162, the “Glucose concentration t=120” value ([2]; [Ab] 4 µg/mL) was 153 and the “Glucose concentration t=180” value ([2]; [Ab] 4 µg/mL) was 148. For the same molecule, the “Glucose concentration t=240” value ([2]; [Ab] 4 µg/mL) was 149, the dC/dT ([2]; [Ab] 4 µg/mL) was 7 and the “F=the rate of change” value ([2]; [Ab] 8 µg/mL) was 7%. For the same molecule, the “Glucose concentration t=0” value ([2]; [Ab] 8 µg/mL) was 150, the “Glucose concentration t=60” value ([2]; [Ab] 8 µg/mL) was 156 and the “Glucose concentration t=120” value ([2]; [Ab] 8 µg/mL) was 146. The “Glucose concentration t=180” value ([2]; [Ab] 8 µg/mL) was 151, the “Glucose concentration t=240” value ([2]; [Ab] 8 µg/mL) was 145 and the dC/dT ([2]; [Ab] 8 µg/mL) was 3. For the same molecule, the “F=the rate of change” value ([2]; [Ab] 0,125 µg/mL) was 83%, the “Glucose concentration t=0” value ([2]; [Ab] 0,125 µg/mL) was 148 and the “Glucose concentration t=60” value ([2]; [Ab] 0,125 µg/mL) was 154. For the same molecule, the “Glucose concentration t=120” value ([2]; [Ab] 0,125 µg/mL) was 149, the “Glucose concentration t=180” value ([2]; [Ab] 0,125 µg/mL) was 94 and the dC/dT ([2]; [Ab] 0,125 µg/mL) was 30. For the same molecule, the “F=the rate of change” value ([2]; [Ab] 0,0625 µg/mL) was 93%, the “Glucose concentration t=0” value ([2]; [Ab] 0,0625 µg/mL) was 145 and the “Glucose concentration t=60” value ([2]; [Ab] 0,0625 µg/mL) was 156. For the same molecule, the “Glucose concentration t=120” value ([2]; [Ab] 0,0625 µg/mL) was 139, the “Glucose concentration t=180” value ([2]; [Ab] 0,0625 µg/mL) was 89 and the dC/dT ([2]; [Ab] 0,0625 µg/mL) was 34.

Reference: EP3717657B1, “A SYSTEM FOR ASSESSING MICROBIAL SUSCEPTIBILITY TO ANTIBIOTIC AGENTS” (Ascilion AB, priority 2017, dated 2019)
